The text below walks through data of the supplement of paper PMC10307832.

What all share (assay): relative viability (nuclei count vs DMSO), 5 days (fraction); higher = more cells survive
Compound in experiment [1]: CN(C)CC1=CC(=CC=C1)N=C(C2=CC=CC=C2)C3=C(NC4=C3C=CC(=C4)C(=O)N(C)C)O + Cc1cc(Nc2cc(N3CCN(C)CC3)nc(Sc3ccc(NC(=O)C4CC4)cc3)n2)n[nH]1 [Tozasertib] (partner 0.1 µM)
The method in brief: (§1)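 Relative viability divides the nuclei count in treated wells by that in vehicle wells. Lung cancer cell lines were seeded in 1536-well plates, dosed by pin tool the next day, and fixed and stained after 5 days in one step with final 0.05% Triton X-100, 1% formaldehyde and 1 ug/ml Hoechst. Dosing was a single drug or a fixed anchor-drug dose plus five library-drug doses (not always all listed) in √10 steps, and values are medians of duplicate plates imaged at 4×.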

Compound in experiment [2]: CN(C)CC1=CC(=CC=C1)N=C(C2=CC=CC=C2)C3=C(NC4=C3C=CC(=C4)C(=O)N(C)C)O + N=C(N)NC(=N)NCCc1ccccc1 [Phenformin] (partner 250 µM)
The method in brief:
as §1

Compound in experiment [3]: CN(C)CC1=CC(=CC=C1)N=C(C2=CC=CC=C2)C3=C(NC4=C3C=CC(=C4)C(=O)N(C)C)O + CC1(C)CCC(c2ccc(Cl)cc2)=C(CN2CCN(c3ccc(C(=O)NS(=O)(=O)c4ccc(N[C@H](CCN5CCOCC5)CSc5ccccc5)c(S(=O)(=O)C(F)(F)F)c4)cc3)CC2)C1 [Navitoclax] (partner 0.5 µM)
Put shortly: as §1

Compound in experiment [4]: CN(C)CC1=CC(=CC=C1)N=C(C2=CC=CC=C2)C3=C(NC4=C3C=CC(=C4)C(=O)N(C)C)O
The method in brief:
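On vehicle-anchored 1536-well plates, lung cancer cell lines held overnight at 37 °C were pinned with five library-drug doses (not always all listed) spaced by √10. With no medium change over 5 days, they were then fixed, permeabilised and Hoechst-stained in one step and imaged at 4×. MetaXpress counted nuclei, and viability is the median across plates of treated-well over vehicle-well nuclei. Acceptance needed control CV below 25% and at least one doubling.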

On to 201T, for which the relative viability in experiment [1] (first compound 0.08 µM) was found to be 0.937; in experiment [1] (first compound 0.253 µM) it was 0.97; in experiment [1] (first compound 0.8 µM), 0.857; in experiment [1] (first compound 2.53 µM), 0.904; in experiment [1] (first compound 8 µM), 0.809; in experiment [2] (first compound 0.08 µM), 0.437. Besides, the relative viability in experiment [2] (first compound 0.253 µM) amounted to 0.449; in experiment [2] (first compound 0.8 µM), 0.416; in experiment [2] (first compound 2.53 µM) it was 0.428; in experiment [2] (first compound 8 µM) it was 0.41; in experiment [3] (first compound 0.08 µM), 1.2; in experiment [3] (first compound 0.253 µM), 1.23. The relative viability was 1.14 in experiment [3] (first compound 0.8 µM); 1.17 in experiment [3] (first compound 2.53 µM); 1.18 in experiment [3] (first compound 8 µM); 0.983 in experiment [4] (0.08 µM); 1.02 in experiment [4] (0.253 µM); 0.997 in experiment [4] (0.8 µM). Besides, the relative viability turned out to be 0.947 in experiment [4] (2.53 µM) and 0.901 in experiment [4] (8 µM).

A549: the relative viability amounted to 0.202 in experiment [2] (first compound 0.08 µM); 0.157 in experiment [2] (first compound 0.253 µM); 0.124 in experiment [2] (first compound 0.8 µM); 0.0946 in experiment [2] (first compound 2.53 µM); 0.16 in experiment [2] (first compound 8 µM); 1.23 in experiment [3] (first compound 0.08 µM). The relative viability in experiment [3] (first compound 0.253 µM) was 1.24; in experiment [3] (first compound 0.8 µM) it was 1.19; in experiment [3] (first compound 2.53 µM) it was 1.2; in experiment [3] (first compound 8 µM), 1.2; in experiment [4] (0.08 µM), 1.01; in experiment [4] (0.253 µM), 0.991. In addition, the figures for the relative viability in experiment [4] (0.8 µM), in experiment [4] (2.53 µM) and in experiment [4] (8 µM) were 1.01, 0.929 and 0.901, respectively.

Regarding A-427, the relative viability in experiment [1] (first compound 0.08 µM) was 0.22; in experiment [1] (first compound 0.253 µM) it was 0.188; in experiment [1] (first compound 0.8 µM), 0.182; in experiment [1] (first compound 2.53 µM) it was 0.213; in experiment [1] (first compound 8 µM), 0.147; in experiment [2] (first compound 0.08 µM) it was 0.378. Also, the relative viability in experiment [2] (first compound 0.253 µM) stood at 0.385; in experiment [2] (first compound 0.8 µM), 0.308; in experiment [2] (first compound 2.53 µM) it was 0.257; in experiment [2] (first compound 8 µM), 0.266; in experiment [3] (first compound 0.08 µM), 0.96; in experiment [3] (first compound 0.253 µM), 0.961. Further, the relative viability in experiment [3] (first compound 0.8 µM) was 1.01; in experiment [3] (first compound 2.53 µM), 0.92; in experiment [3] (first compound 8 µM) it was 0.964; in experiment [4] (0.08 µM) it was 1.02; in experiment [4] (0.253 µM), 1.07; in experiment [4] (0.8 µM), 0.974. For the same cell line, the relative viability in experiment [4] (2.53 µM) was found to be 0.963; in experiment [4] (8 µM), 0.98.

Regarding ABC-1, the relative viability in experiment [1] (first compound 0.08 µM) is 0.198; in experiment [1] (first compound 0.253 µM), 0.173; in experiment [1] (first compound 0.8 µM) it was 0.15; in experiment [1] (first compound 2.53 µM), 0.179; in experiment [1] (first compound 8 µM), 0.171; in experiment [2] (first compound 0.08 µM), 0.205. The relative viability in experiment [2] (first compound 0.253 µM) amounted to 0.277; in experiment [2] (first compound 0.8 µM), 0.231; in experiment [2] (first compound 2.53 µM) it was 0.207; in experiment [2] (first compound 8 µM) it was 0.243; in experiment [4] (0.08 µM), 1.1; in experiment [4] (0.253 µM), 1.05. For the same cell line, the results for the relative viability in experiment [4] (0.8 µM), in experiment [4] (2.53 µM) and in experiment [4] (8 µM) were 0.971, 0.891 and 0.864, respectively.

In the case of BEN, the relative viability was determined as 0.619 in experiment [1] (first compound 0.08 µM); 0.493 in experiment [1] (first compound 0.253 µM); 0.5 in experiment [1] (first compound 0.8 µM); 0.426 in experiment [1] (first compound 2.53 µM); 0.538 in experiment [1] (first compound 8 µM); 0.233 in experiment [2] (first compound 0.08 µM). The relative viability came out at 0.274 in experiment [2] (first compound 0.253 µM); 0.238 in experiment [2] (first compound 0.8 µM); 0.223 in experiment [2] (first compound 2.53 µM); 0.267 in experiment [2] (first compound 8 µM); 0.0778 in experiment [3] (first compound 0.08 µM); 0.06 in experiment [3] (first compound 0.253 µM). Also, the relative viability came out at 0.0663 in experiment [3] (first compound 0.8 µM); 0.0535 in experiment [3] (first compound 2.53 µM); 0.0691 in experiment [3] (first compound 8 µM); 0.904 in experiment [4] (0.08 µM); 0.944 in experiment [4] (0.253 µM); 0.988 in experiment [4] (0.8 µM). For the same cell line, the figures for the relative viability in experiment [4] (2.53 µM) and in experiment [4] (8 µM) were 1 and 0.909, respectively.

CAL-12T: the relative viability in experiment [1] (first compound 0.08 µM) is 0.375; in experiment [1] (first compound 0.253 µM), 0.342; in experiment [1] (first compound 0.8 µM), 0.311; in experiment [1] (first compound 2.53 µM), 0.308; in experiment [1] (first compound 8 µM) it was 0.292; in experiment [2] (first compound 0.08 µM), 0.55. Further, the relative viability in experiment [2] (first compound 0.253 µM) was 0.563; in experiment [2] (first compound 0.8 µM), 0.529; in experiment [2] (first compound 2.53 µM), 0.555; in experiment [2] (first compound 8 µM) it was 0.543; in experiment [3] (first compound 0.08 µM), 1.11; in experiment [3] (first compound 0.253 µM), 1.32. In addition, the relative viability in experiment [3] (first compound 0.8 µM) is 1.21; in experiment [3] (first compound 2.53 µM), 0.963; in experiment [3] (first compound 8 µM), 1.25; in experiment [4] (0.08 µM), 1.07; in experiment [4] (0.253 µM), 1.02; in experiment [4] (0.8 µM), 1.09. In addition, the relative viability in experiment [4] (2.53 µM) was determined as 1.01; in experiment [4] (8 µM), 1.12.

With COR-L23, the relative viability in experiment [1] (first compound 0.08 µM) was found to be 0.185; in experiment [1] (first compound 0.253 µM), 0.226; in experiment [1] (first compound 0.8 µM), 0.201; in experiment [1] (first compound 2.53 µM), 0.205; in experiment [1] (first compound 8 µM), 0.154; in experiment [2] (first compound 0.08 µM), 0.495. Also, the relative viability in experiment [2] (first compound 0.253 µM) was determined as 0.413; in experiment [2] (first compound 0.8 µM), 0.402; in experiment [2] (first compound 2.53 µM) it was 0.423; in experiment [2] (first compound 8 µM), 0.421; in experiment [3] (first compound 0.08 µM) it was 1.02; in experiment [3] (first compound 0.253 µM), 1.07. Also, the relative viability in experiment [3] (first compound 0.8 µM) was 1.07; in experiment [3] (first compound 2.53 µM), 0.77; in experiment [3] (first compound 8 µM), 0.791; in experiment [4] (0.08 µM) it was 1.04; in experiment [4] (0.253 µM), 1.02; in experiment [4] (0.8 µM), 1.09. For the same cell line, the relative viability came out at 0.95 in experiment [4] (2.53 µM) and 0.967 in experiment [4] (8 µM).

Take COR-L 105: the relative viability in experiment [1] (first compound 0.08 µM) stood at 0.372; in experiment [1] (first compound 0.253 µM), 0.369; in experiment [1] (first compound 0.8 µM) it was 0.336; in experiment [1] (first compound 2.53 µM) it was 0.346; in experiment [1] (first compound 8 µM), 0.361; in experiment [2] (first compound 0.08 µM), 0.464. The relative viability in experiment [2] (first compound 0.253 µM) is 0.546; in experiment [2] (first compound 0.8 µM), 0.427; in experiment [2] (first compound 2.53 µM) it was 0.455; in experiment [2] (first compound 8 µM), 0.478; in experiment [3] (first compound 0.08 µM) it was 0.664; in experiment [3] (first compound 0.253 µM), 0.795. Also, the relative viability in experiment [3] (first compound 0.8 µM) stood at 0.762; in experiment [3] (first compound 2.53 µM), 0.733; in experiment [3] (first compound 8 µM), 0.562; in experiment [4] (0.08 µM), 1.04; in experiment [4] (0.253 µM) it was 1.03; in experiment [4] (0.8 µM) it was 0.926. In addition, the relative viability in experiment [4] (2.53 µM) was found to be 0.928; in experiment [4] (8 µM) it was 0.787.
